{"source": "patent US20230113761A1", "about": "“METHOD AND COMPOSITION FOR MIMICKING BIOLOGICAL BENEFITS OF CALORIC RESTRICTION BY ADMINISTRATION OF B-AMINOISOBUTYRIC ACID” (NANJING NUTRABUILDING BIO-TECH CO., LTD., priority 2021, published 2023)", "key": {"[1]": {"test": "Blood lipid parameters (TCHO, TG, LDL, HDL) of high-fat diet mice after 8 weeks of treatment", "assay_type": "in vivo", "conditions": "group D (HFD+BAIBA, 150 mg/kg) vs group B (HFD)", "protocol": "(§1) Mice were divided into groups and named after the diet they consumed. Group A mice were fed ad libitum (control), Group B mice were on high-fat diet (HFD), Group C mice were fed restricted amount of the HFD diet to achieve caloric restriction (HFD+CR), and Group D mice were fed high-fat diet and supplemented with 150 mg/kg β-aminoisobutyric acid (HFD+BAIBA). All groups of mice were housed individually, and fed for months of interventions and had free access to water. Health status was monitored during the intervention.\n(§2) The four groups of mice were fed for eight weeks, body weight was measured weekly, and body fat mass, lean mass and free water mass were also measured by Body Composition Analyzer to monitor body composition every week. At the end of 8 weeks of treatment, blood was collected for each group of mice, and parameters such as total cholesterol (TCHO), triglyceride (TG), low-density lipoprotein (LDL) and high-density lipoprotein (HDL) were detected. Data were collected and subject to statistical analysis."}, "[2]": {"test": "Body weight and body composition (fat mass, lean mass, free water) of high-fat diet mice during 8 weeks of feeding intervention", "assay_type": "in vivo", "conditions": "for fat mass: FIG. 2", "protocol": "as §1, §2"}}, "data": [{"smiles": "CC(CN)C(=O)O", "note": "(stereo not drawn) [BAIBA, β-aminoisobutyric acid]", "values": [{"measurement": "total cholesterol (TCHO) level", "setting": "[1]; FIG. 5", "result": "significantly lower than that of group B (HFD) and close to that of group C"}, {"measurement": "triglyceride (TG) level", "setting": "[1]; FIG. 6", "result": "significantly lower than that of group B (HFD) and close to that of group C"}, {"measurement": "low-density lipoprotein (LDL) level", "setting": "[1]; FIG. 7", "result": "significantly lower than that of group B (HFD)"}, {"measurement": "high-density lipoprotein (HDL) level", "setting": "[1]; four groups not significantly different, FIG. 8", "result": "higher HDL levles compared to group B (HFD)"}, {"measurement": "fat mass", "setting": "[2]; group D (HFD+BAIBA, 150 mg/kg) vs group B (HFD), 8 weeks, Body Composition Analyzer", "result": "decreased compared to group B (HFD)"}, {"measurement": "free water content", "setting": "[2]; group D (HFD+BAIBA, 150 mg/kg) vs group B (HFD), 8 weeks, FIG. 4", "result": "significantly higher than that in group B (HFD)"}, {"measurement": "lean mass", "setting": "[2]; group D (HFD+BAIBA, 150 mg/kg) vs group C (HFD+CR), by the 8th week, FIG. 3", "result": "significantly more than that of group C (HFD+CR)"}, {"measurement": "fat mass", "setting": "[2]; group D (HFD+BAIBA, 150 mg/kg) vs group C (HFD+CR), from week 5 of feeding intervention", "result": "less fat mass than group C (HFD+CR)"}, {"measurement": "body weight", "setting": "[2]; mice on high-fat diet supplemented with 150 mg/kg BAIBA (group D) vs group B (HFD), 8 weeks, measured weekly, FIG. 1", "result": "significantly lower than that of group B (HFD)"}]}]}
